Reference: US20240408093A1, “HETEROBIFUNCTIONAL COMPOUNDS AND THEIR USE IN TREATING DISEASE” (HALDA THERAPEUTICS OPCO, INC., priority 2022, published 2024)

Key:
EGFR T790M L858R = biological target: T1, EGFR T790M L858R (Homo sapiens, UniProt P00533, L858R/T790M); assay: Release of effector protein ligand from heterobifunctional compounds, EGFR T790M L858R; assay type: biochemical; conditions: detected A1-3
T1 construct: EGFR T790M L858R (amino acids 696-1022)
Experimental: Exemplary heterobifunctional compounds were evaluated for the ability to release an effector protein ligand in the presence of KRAS G12C, BTK, or EGFR T790M L858R target proteins.
Samples for mass spectrometry for KRAS G12C, BTK, and EGFR T790M L858R were prepared as described above for the intact mass spectrometry target engagement experiment, respectively, except rather than flash-freezing, 20 μL of sample was quenched with 50 μL of 100% acetonitrile. As well, a buffer-only control was used to detect latent release of effector protein ligand analyte. Internal standard (IS) solution consisted of 200 ng/mL propranolol and 50 ng/mL diclofenac in methanol:water 1:1 (v/v). A 4-point calibration curve (calibration standard (CS)) consisting of each analyte was made at final concentrations of 3 nM, 30 nM, 300 nM, and 3000 nM. Unknown samples were diluted such that the unknown analyte concentration was in the linear range of the calibration curve.
Samples for all proteins were prepared and analyzed from the following:
Samples were further analyzed with AB Sciex Triple Quad 5500 system coupled with Shimadzu Prominence HPLC.

GSPT1 = biological target: T2, GSPT1 (Homo sapiens, UniProt P15170+Q96SW2); assay: GSPT1 HiBiT degradation assay; assay type: cell-based; conditions: HEK293 LgBiT GSPT1 HiBiT cells, 6 hours
T2 construct: host or cells: HEK293 LgBiT / GSPT1 HiBiT CRISPR knock-in
T2 sequence (P15170 whole entry): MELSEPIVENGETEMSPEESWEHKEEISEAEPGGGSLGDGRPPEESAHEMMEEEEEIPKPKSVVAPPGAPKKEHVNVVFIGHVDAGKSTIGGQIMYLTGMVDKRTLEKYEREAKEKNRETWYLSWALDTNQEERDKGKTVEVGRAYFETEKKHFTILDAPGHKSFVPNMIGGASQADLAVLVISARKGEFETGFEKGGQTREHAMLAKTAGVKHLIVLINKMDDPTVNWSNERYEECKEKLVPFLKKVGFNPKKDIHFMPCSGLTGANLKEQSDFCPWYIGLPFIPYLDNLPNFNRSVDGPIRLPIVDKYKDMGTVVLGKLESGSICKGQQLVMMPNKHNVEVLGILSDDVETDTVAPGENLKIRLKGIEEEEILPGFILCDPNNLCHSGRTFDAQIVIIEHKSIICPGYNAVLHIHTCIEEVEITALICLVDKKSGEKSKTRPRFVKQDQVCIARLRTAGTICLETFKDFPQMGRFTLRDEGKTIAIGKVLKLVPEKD
T2 sequence (Q96SW2 whole entry): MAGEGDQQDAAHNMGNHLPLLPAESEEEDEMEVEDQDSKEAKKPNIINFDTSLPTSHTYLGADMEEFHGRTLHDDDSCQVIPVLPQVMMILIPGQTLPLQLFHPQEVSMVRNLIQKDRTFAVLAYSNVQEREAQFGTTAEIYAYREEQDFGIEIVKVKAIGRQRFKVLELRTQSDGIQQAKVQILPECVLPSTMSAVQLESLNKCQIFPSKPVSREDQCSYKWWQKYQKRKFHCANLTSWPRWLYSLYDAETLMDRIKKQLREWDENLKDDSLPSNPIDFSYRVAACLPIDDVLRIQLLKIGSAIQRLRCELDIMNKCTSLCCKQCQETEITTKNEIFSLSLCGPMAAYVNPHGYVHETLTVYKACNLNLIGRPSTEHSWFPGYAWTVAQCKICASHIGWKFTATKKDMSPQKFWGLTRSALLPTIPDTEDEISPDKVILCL
T2 sequence (Q16531 whole entry partner): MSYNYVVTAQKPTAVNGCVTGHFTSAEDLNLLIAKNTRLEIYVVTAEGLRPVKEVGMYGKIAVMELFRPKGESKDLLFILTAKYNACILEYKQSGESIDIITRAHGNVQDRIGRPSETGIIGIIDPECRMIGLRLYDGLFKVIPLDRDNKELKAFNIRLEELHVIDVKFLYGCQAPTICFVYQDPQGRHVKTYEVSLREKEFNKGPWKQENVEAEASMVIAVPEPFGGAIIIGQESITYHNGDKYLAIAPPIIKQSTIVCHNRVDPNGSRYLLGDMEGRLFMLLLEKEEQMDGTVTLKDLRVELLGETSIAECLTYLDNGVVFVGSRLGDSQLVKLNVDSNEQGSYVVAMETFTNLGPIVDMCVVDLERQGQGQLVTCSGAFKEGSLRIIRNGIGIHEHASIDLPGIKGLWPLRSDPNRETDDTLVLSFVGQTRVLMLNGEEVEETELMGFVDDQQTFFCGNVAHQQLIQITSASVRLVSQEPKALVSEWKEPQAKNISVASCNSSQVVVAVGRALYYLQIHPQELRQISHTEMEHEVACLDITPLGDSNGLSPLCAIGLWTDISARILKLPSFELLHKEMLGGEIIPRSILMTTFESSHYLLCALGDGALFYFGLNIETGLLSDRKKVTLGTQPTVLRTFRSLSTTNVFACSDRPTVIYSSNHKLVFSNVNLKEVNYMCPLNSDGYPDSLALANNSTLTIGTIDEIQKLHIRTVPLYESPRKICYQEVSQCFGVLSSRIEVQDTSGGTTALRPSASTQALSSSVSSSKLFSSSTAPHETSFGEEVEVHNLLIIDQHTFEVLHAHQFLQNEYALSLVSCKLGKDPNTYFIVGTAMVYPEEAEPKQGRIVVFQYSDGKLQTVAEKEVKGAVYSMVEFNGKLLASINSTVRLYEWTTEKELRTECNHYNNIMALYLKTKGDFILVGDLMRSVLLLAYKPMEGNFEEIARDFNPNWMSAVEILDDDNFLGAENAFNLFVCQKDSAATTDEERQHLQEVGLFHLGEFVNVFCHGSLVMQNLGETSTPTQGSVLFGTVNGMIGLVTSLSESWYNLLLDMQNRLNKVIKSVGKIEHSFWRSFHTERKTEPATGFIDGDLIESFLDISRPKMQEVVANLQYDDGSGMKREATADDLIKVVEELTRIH
Source text: Promega developed a HEK293 cell line that constitutively expresses LgBiT protein and GSPT1_HiBiT fusion protein. When both proteins are present, the HiBiT portion of the fusion protein combines with LgBiT protein to form a functional luciferase enzyme. Endurazine, a cell permeable small molecule, is converted by cellular esterases into furimazine, which the luciferase enzyme uses as a substrate to generate luminescence. When GSPT1 is degraded, the HiBit is also degraded. This prevents formation of fully functional luciferase, leading to a loss in luminescence. GSPT1 degradation therefore correlates with a decrease in luminescence and can be measured continuously over time. The concentration of compound at which 50% GSPT1 degradation occurs (DC50) may be calculated using this system.
HEK293 LgBiTGSPT1 HiBiT CRISPR Knock-in cells were cultured in DMEM Media supplemented with 10% Heat-inactivated FBS, 1% Penicillin/Streptomycin, 200 μg/mL hygromycin and stored in a humidified incubator set at 37° C. and 5% CO2. 18-24 hours prior to compound treatment, cells were seeded at 1000 cells/well in a 384-well tissue culture-treated white plates in 25 μL media lacking selection for 18-24 hours. The plates were spun at 300 g for 30 seconds and stored in the incubator overnight. After 24 hours, compounds are titrated in DMSO and added to media supplemented with endurazine substrate. A 25 μL aliquot of 2× compound/endurazine in media is then added to the 384-well microplate with seeded cells. (Endurazine is used at a final concentration of 0.5×). The plate was spun at 300 g for 30 seconds and stored in the incubator. After 6 hours, the plate was read on a Perkin Elmer MultiMode Plate Reader Envision 2105 to measure luminescence signal. Data were plotted in Prism (Graphpad) and the concentration of compound at which 50% GSPT1 degradation occurs (DC50) was calculated.

HeLa cells (ATCC CCL-2) = assay: Cellular growth inhibition assay, HeLa cells (Example 16); assay type: cell-based; conditions: Homo sapiens, 72 hours, CellTiter-Glo 2.0
[1] = tested on: HEK293 cells (ATCC CRL-1573); assay: Cellular growth inhibition assay, HEK293 cells (Example 16); assay type: cell-based; conditions: Homo sapiens, 72 hours, CellTiter-Glo 2.0
[2] = biological target: T3, EGFR T790M, L858R (amino acids 669-1011) (Homo sapiens, UniProt P00533, L858R/T790M); assay: KdELECT binding assay, EGFR T790M, L858R
T3 construct: purchased Eurofins Discovery (KdELECT); host or cells: mammalian cells (HEK-293)
Experimental: (§1) Exemplary compounds were tested for ability to bind to EGFR WT (amino acids 669-1011, Accession Number NP_005219.2) or EGFR T790M, L858R (amino acids 669-1011 Accession Number NP_005219.2) expressed from bacteria or mammalian cells, respectively. Compounds were tested using the KdELECT assay at Eurofins Discovery.
(§2) Kinase-tagged T7 phage strains were prepared in an E. coli host derived from the BL21 strain. E. coli were grown to log-phase and infected with T7 phage and incubated with shaking at 32° C. until lysis. The lysates were centrifuged and filtered to remove cell debris. The remaining kinases were produced in HEK-293 cells and subsequently tagged with DNA for qPCR detection. Streptavidin-coated magnetic beads were treated with biotinylated small molecule ligands for 30 minutes at room temperature to generate affinity resins for kinase assays. The liganded beads were blocked with excess biotin and washed with blocking buffer (SeaBlock (Pierce), 1% BSA, 0.05% Tween 20, 1 mM DTT) to remove unbound ligand and to reduce non-specific binding. Binding reactions were assembled by combining kinases, liganded affinity beads, and test compounds in 1x binding buffer (20% SeaBlock, 0.17× PBS, 0.05% Tween 20, 6 mM DTT). Test compounds were prepared as 111× stocks in 100% DMSO. Kd values were determined using an 11-point 3-fold compound dilution series with three DMSO control points. All compounds for Kd measurements are distributed by acoustic transfer (non-contact dispensing) in 100% DMSO. The compounds were then diluted directly into the assays such that the final concentration of DMSO was 0.9%. All reactions performed in polypropylene 384-well plate. Each was a final volume of 0.02 mL. The assay plates were incubated at room temperature with shaking for 1 hour and the affinity beads were washed with wash buffer (1× PBS, 0.05% Tween 20). The beads were then re-suspended in elution buffer (1× PBS, 0.05% Tween 20, 0.5 μM nonbiotinylated affinity ligand) and incubated at room temperature with shaking for 30 minutes. The kinase concentration in the eluates was measured by qPCR.

[3] = biological target: T4, EGFR WT (amino acids 669-1011) (Homo sapiens, UniProt P00533); assay: KdELECT binding assay, EGFR WT
T4 construct: purchased Eurofins Discovery (KdELECT); host or cells: bacteria (E. coli BL21-derived, T7 phage)
Experimental: as §1, §2

[4] = biological target: T5, EGFR T790M/L858R kinase domain (Homo sapiens, UniProt P00533, L858R/T790M); assay: EGFR cellular target engagement assay (HEK293 cells stable for EGFR T790M, L858R); assay type: cell-based; conditions: 6 hours, read-out: TE50 (the source's name)
T5 construct: EGFR (amino acids 696-1022, T790M, L858R); expressed in transfected cells; host or cells: HEK293, lentiviral transduction, puromycin selection
Experimental: HEK293 cells were cultured in DMEM (Gibco 11995), supplemented with 10% Heat-inactivated FBS (Gibco A38400-01) and 1% Penicillin/Streptomycin (Gibco 15140-122) at 37° C. with 5% CO2 in a humidified tissue culture incubator. Cells were made stable for EGFR (amino acids 696-1022, T790M, L858R) by lentiviral transduction, followed by selection with 1 μg/ml Puromycin Dihydrochloride (Thermo A1113803). Cells were seeded at 30,000 cells/ml in 0.1 ml of complete media in Poly-D-lysine-treated 96-well plates and incubated overnight. Cells were treated with increasing concentrations of compound and let incubate at 37C and 5% CO2 for 6 hours, after which media was aspirated, washed with 1×PBS and cells were lysed in RIPA Lysis and Extraction Buffer (Thermo 89901) supplemented with 5 mM MgCl2, Protease and Phosphatase inhibitor cocktail (Thermo 1861281), and Universal Nuclease (Thermo 88700). Plates with RIPA were shaken at 4° C. at 600 rpm for 15 min. After shaking samples, they were collected and spun down at 21,000 g for 15 min at 4° C. Following centrifugation, […] of lysate was added to Laemmli Sample Buffer (Bio-Rad 1610747) plus 10% beta-mercaptoethanol, boiled for 15 minutes at 65° C. and loaded onto 4-20% Mini-PROTEAN TGX™ Precast Protein Gels (Bio-Rad). Protein was transferred to a nitrocellulose membrane (Thermo LC2000) using the iBlot 2 Dry Blotting System (Thermo). After transfer, membranes were washed in 1× TBST (Bioland Scientific LLC TBST0103) 3× for 5 min. Following the wash, blocking buffer (Rockland MB-070) was added for 1 hour at room temperature. Primary antibodies against EGFR (Cell Signaling Technology 3197) and actin (Cell Signaling Technology 3700S) were added overnight at 4° C. Membranes were then washed again 3× for 5 min in 1× TBST. Secondary antibodies (LI-COR 926-68072 and 926-68073) were added and shaken for 1 hr at room temperature. Membranes were then washed 3× for 5 min in 1×TBST and developed. Membranes were placed on an Odyssey imager (LI-COR).

CCNK = biological target: T6, CCNK (Homo sapiens, UniProt O75909+Q16531+Q9NYV4); assay: CCNK HiBiT degradation assay; assay type: cell-based; conditions: HEK293 LgBiT/CCNK HiBiT cells, 6 hours
T6 construct: expressed in transfected cells; host or cells: HEK293 LgBiT cells (Promega), lentiviral transduction, puromycin selection
T6 sequence (O75909 whole entry, species assumed): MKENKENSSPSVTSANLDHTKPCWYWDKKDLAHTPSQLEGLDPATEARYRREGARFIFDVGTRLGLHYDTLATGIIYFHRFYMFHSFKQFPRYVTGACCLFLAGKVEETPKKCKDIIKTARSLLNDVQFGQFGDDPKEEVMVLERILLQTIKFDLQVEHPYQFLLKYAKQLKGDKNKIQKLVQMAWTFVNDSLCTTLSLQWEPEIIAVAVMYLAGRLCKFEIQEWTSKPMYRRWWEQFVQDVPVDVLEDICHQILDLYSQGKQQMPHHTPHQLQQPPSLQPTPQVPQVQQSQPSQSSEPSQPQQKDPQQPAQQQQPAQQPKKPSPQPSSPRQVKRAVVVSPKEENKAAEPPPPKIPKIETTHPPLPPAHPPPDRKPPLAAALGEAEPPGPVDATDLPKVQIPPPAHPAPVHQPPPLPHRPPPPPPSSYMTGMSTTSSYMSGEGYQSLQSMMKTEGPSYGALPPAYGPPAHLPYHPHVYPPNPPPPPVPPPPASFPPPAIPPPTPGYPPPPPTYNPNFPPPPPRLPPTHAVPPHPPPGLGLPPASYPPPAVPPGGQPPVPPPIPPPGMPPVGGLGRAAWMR
T6 sequence (Q9NYV4 whole entry, species assumed): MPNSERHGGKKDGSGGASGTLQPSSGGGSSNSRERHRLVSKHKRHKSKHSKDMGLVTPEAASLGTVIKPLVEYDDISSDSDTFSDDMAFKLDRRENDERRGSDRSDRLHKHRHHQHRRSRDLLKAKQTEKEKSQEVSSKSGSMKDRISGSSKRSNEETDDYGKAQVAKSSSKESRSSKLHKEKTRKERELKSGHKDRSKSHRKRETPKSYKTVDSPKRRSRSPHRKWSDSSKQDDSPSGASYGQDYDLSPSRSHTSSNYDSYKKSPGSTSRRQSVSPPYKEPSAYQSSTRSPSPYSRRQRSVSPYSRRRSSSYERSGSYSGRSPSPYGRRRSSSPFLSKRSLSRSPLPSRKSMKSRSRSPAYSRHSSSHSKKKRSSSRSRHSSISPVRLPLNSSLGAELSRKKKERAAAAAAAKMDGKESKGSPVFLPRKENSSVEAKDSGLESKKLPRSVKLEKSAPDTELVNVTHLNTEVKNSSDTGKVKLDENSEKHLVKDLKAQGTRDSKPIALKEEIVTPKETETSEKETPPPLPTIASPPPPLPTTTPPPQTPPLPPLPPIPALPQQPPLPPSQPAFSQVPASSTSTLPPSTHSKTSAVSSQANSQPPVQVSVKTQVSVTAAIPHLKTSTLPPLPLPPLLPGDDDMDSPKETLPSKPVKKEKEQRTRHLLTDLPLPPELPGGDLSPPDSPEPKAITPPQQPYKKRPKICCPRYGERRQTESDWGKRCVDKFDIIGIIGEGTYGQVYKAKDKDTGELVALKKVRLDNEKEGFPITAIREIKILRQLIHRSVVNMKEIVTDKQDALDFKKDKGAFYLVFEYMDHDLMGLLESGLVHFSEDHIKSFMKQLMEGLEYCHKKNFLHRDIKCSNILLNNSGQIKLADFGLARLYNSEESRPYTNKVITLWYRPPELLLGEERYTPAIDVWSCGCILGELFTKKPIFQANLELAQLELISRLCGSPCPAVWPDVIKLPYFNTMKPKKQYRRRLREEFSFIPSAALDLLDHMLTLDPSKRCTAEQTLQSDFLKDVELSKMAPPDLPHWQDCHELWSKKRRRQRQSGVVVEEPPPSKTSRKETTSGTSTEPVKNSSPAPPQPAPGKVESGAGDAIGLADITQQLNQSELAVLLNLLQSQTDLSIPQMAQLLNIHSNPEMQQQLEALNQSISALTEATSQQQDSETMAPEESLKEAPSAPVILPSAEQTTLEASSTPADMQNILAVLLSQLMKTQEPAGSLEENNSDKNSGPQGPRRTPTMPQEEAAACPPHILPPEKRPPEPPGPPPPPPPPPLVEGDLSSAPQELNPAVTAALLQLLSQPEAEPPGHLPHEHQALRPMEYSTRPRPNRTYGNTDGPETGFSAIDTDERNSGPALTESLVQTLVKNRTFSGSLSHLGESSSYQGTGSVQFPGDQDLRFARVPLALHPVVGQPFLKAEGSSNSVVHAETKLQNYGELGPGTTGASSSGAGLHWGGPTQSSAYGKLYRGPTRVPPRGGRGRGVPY
T6 sequence (Q16531 whole entry, species assumed): as the sequence (Q16531 whole entry partner) above
Experimental: HEK293 LgBiT cells (Promega) were cultured in DMEM (Gibco 11995), supplemented with 10% Heat-inactivated FBS (Gibco A38400-01) and 1% Penicillin/Streptomycin (Gibco 15140-122) and 200 μg/ml Hygromycin B (Gibco 10-687-010) at 37° C. with 5% CO2 in a humidified tissue culture incubator. Cells were made stable for CCNK fused to a C-terminal HiBiT peptide by lentiviral transduction, followed by selection with 1 μg/ml Puromycin Dihydrochloride (Thermo A1113803). HEK293 LgBiT/CCNK HiBiT cells were seeded at 3000 cells/well in 384-well, tissue culture-treated white plates (Perkin Elmer 6007680) in 25 μL media lacking selection for 18-24 hours. Plates were spun at 300 g for 30 seconds and stored in the incubator overnight. After 24 hours, compounds were titrated in DMSO and added to media supplemented with Endurazine Substrate (Promega N2570). A 25 ul aliquot of 2× compound/endurazine in media were then added to the 384-well microplate with seeded cells. (Endurazine was used at a final concentration of 0.5×). The plate was spun at 300 g for 30 seconds and stored in the incubator. After 6 hours the plate was read on Envision MultiMode Plate Reader 2105 (Perkin Elmer) to measure luminescence signal. Data were plotted in Prism (Graphpad) and the concentration of compound at which 50% CCNK degradation occurs (DC50) was calculated.

Row | Concentration of Effector Protein Ligand (EGFR T790M L858R; Buffer + Protein (EGFR T790M L858R), Time 0 h) | Concentration of Effector Protein Ligand (EGFR T790M L858R; Buffer + Protein (EGFR T790M L858R), Time 2 h) | Concentration of Effector Protein Ligand (EGFR T790M L858R; Buffer + Protein (EGFR T790M L858R), Time 8 h) | Concentration of Effector Protein Ligand (EGFR T790M L858R; Buffer + Protein (EGFR T790M L858R), Time 24 h) | Concentration of Effector Protein Ligand (EGFR T790M L858R; Buffer, Time 0 h) | Concentration of Effector Protein Ligand (EGFR T790M L858R; Buffer, Time 2 h) | Concentration of Effector Protein Ligand (EGFR T790M L858R; Buffer, Time 8 h) | Concentration of Effector Protein Ligand (EGFR T790M L858R; Buffer, Time 24 h) | DC50 (GSPT1) | GI50 (HeLa cells (ATCC CCL-2)) | Kd [2] | Kd [3] | EC50 [4] | DC50 (CCNK) | Compound | GI50 [1]
1 | 0.889 µM | 5.18 µM | 6.91 µM | 9.11 µM | 0.894 µM | 4.06 µM | 7.24 µM | 8.26 µM | – | – | – | – | – | – | C=C(Cn1cc(CNc2cc(N3CCCC[C@H]3CCO)nc3c(CC)cnn23)ccc1=O)C(=O)N[C@@H]1CN(c2nc(Nc3cn(C)nc3OC)c3ncn(C)c3n2)C[C@H]1F [Compound A1-8] | –
2 | – | – | – | – | – | – | – | – | > 2500 nM | > 10 µM | > 2500 nM | > 2500 nM | > 10 µM | – | C=C(CN(C(=O)NCc1ccc2c(c1)CN(C1CCC(=O)NC1=O)C2=O)c1ccc(C)c(Cl)c1)C(=O)N[C@@H]1CN(c2nc(Nc3cn(C)nc3OC)c3ncn(C)c3n2)C[C@H]1F (some centres unmarked) [Compound I-41] | 1500 to 10000 nM
3 | – | – | – | – | – | – | – | – | – | < 0.5 µM | 50 to 500 nM | 50 to 500 nM | 0.25 to 5 µM | < 250 nM | C=C(COC(=O)N1CCN(c2nc(NCc3nc4cc(C)ccc4[nH]3)n3ncc(Br)c3n2)CC1)C(=O)N[C@@H]1CN(c2nc(Nc3cn(C)nc3OC)c3ncn(C)c3n2)C[C@H]1F [II-184] | < 500 nM
